Experimental data published in BindingDB's records for doi:10.1016/s0960-894x(01)00092-0 (Novartis Pharma, 2001).

Key:
[1] = Inhibitory concentration against Selectin E in a dynamic flow assay.
[2] = as above; remark: listed apart in the source

| IC50 [1] [µM] | IC50 [2] [µM] | Structure (SMILES) |
| --- | --- | --- |
| 10 | – | COC(=O)CCCCCCCCO[C@@H]1O[C@@H](CO)[C@@H](O[C@@H]2O[C@@H](CO)[C@H](O)[C@H](O[C@@H](CC3CCCCC3)C(=O)O)[C@@H]2O)[C@H](O[C@@H]2O[C@@H](C)[C@@H](O)[C@H](O)[C@@H]2O)[C@@H]1NC(=O)c1ccc(OC)c(OC)c1 [Sialyl Lewis X Analogue] |
| – | 30 | C[C@@H]1O[C@@H](O[C@@H]2[C@H](CO)OCC[C@H]2O[C@@H]2O[C@@H](CO)[C@H](O)[C@H](O[C@@H](CC3CCCCC3)C(=O)O)[C@@H]2O)[C@@H](O)[C@@H](O)[C@@H]1O [Sodium; (R)-3-cyclohexyl-2-{3,5-dihydroxy-2-hydroxymethyl-6-[2-hydroxymethyl-3-(3,4,5-trihydroxy-6-methyl-tetrahydro-pyran-2-yloxy)-tetrahydro-pyran-4-yloxy]-tetrahydro-pyran-4-yloxy}-propionate] |
